Reference: patent US7273864B2, “Compositions and methods for inducing osteogenesis” (The Scripps Research Institute, priority 2002, dated 2007)

Experiments:
[1] = tested on: Cbfa1/Runx2 gene promoter; test: Cbfa1/Runx2 reporter gene assay in C2C12 cells; format: cell-based, mouse
Description: (§1) Cbfa1/Runx2 Reporter Gene Assay: The murine Cbfa1/Runx2 gene promoter region (1818 bp) was amplified by PCR from mouse genomic DNA library (Clontech) using the following primers: The resulting PCR product was inserted into Topo cloning vector (Invitrogen), amplified and sequenced. The resulting plasmid was digested with restriction enzymes Mlu and XhoI (New England Biolab) and the 1.8 kb fragment was inserted into the Mlu/XhoI cloning sites in pGL3-BV luciferase reporter vector (Promega). For transient transfection assays, cells were seeded in a 6-well plate at a density of 30,000 cells/well in 2 mL of growth medium. After an overnight incubation, the cells reached 80% confluency. Plasmid DNA (1 μg) was transfected into cells using 3 μL of Fugene 6 transfection reagent (Roche) using the manufacturer's protocol. After 8 hours, the transfected cells were plated into 96-well assay plates (Corning) and treated with 300 ng/mL of recombinant human bone morphogenetic protein 4 (BMP-4) (Sigma), 1% DMSO (Sigma) or different concentrations of Compound A (dissolved in DMSO). The cells were incubated for 4 days, then the luciferase activity in the cells was assayed using the Bright-Glo luciferase assay kit (Promega) using the manufacturer's protocol. Luminescence signals were detected by Acquest AD (Molecular Devices) plate reader. […]

[2] = tested on: Cbfa1/Runx2 gene promoter; test: Cbfa1/Runx2 reporter gene assay, transiently transfected C3H10T1/2 cells; format: cell-based, mouse
Description: as §1

[3] = tested on: Cbfa1/Runx2 gene promoter; test: Cbfa1/Runx2 reporter gene assay in 3T3-L1 cells; format: cell-based, mouse; details: 3T3-L1 pre-adipocyte cells
Description: as §1

[4] = tested on: C3H10T1/2 cells; test: Morphology of C3H10T1/2 cells under light microscopy; format: cell-based, mouse; details: 2 μM for 4 days
Method: C3H10T1/2 cells were treated with DMSO (1%) and Compound A (purmorphamine) (2 μM) for 4 days. C2C12 cells were treated with DMSO (1%), Compound A (purmorphamine) (2 μM) or BMP-4 (300 ng/mL) for 4 days. The morphology of the cells was examined under light microscopy.

[5] = tested on: MC3T3-E1 cells; test: Terminal differentiation of MC3T3-E1 pre-osteoblast cells; format: cell-based, mouse
Description: Mouse MC3T3-E1 cells are progenitor cells committed to an osteoblast lineage. […] Since MC3T3-E1 cells already have high levels of endogenous Cbfa1/Runx2, slight up-regulation of this gene may be sufficient to promote terminal differentiation (see, e.g., Xiao et al., J. Cell. Biochem. 74:596 (1999) and Wang et al., J. Bone. Miner. Res. 14:893 (1999)). The change of Cbfa1/Runx2 reporter activity in stably transfected MC3T3-E1 cells is not dramatic when treated with Compound A.
(§2) 3T3-L1 cells, C2C12 cells, and MC-3T3E1 cells were treated with DMSO (control), BMP-4(300 ng/mL), BMP-4 (100 ng/mL) and Compound A (1 μM), or 0.1 μM, 0.5 μM, 1 μM, 5 μM, or 10 μM Compound A. ALP activity was measured as described in Example 1 above, after four days of treatment.

[6] = tested on: alkaline phosphatase, collagen type I and osteoponin; test: Morphological and transcriptional analysis of osteogenesis (FIG. 5); format: cell-based
[7] = tested on: 3T3-L1 cells; test: Alkaline phosphatase (ALP) activity in 3T3-L1 pre-adipocyte cells; format: cell-based, mouse
Method: Alkaline Phosphatase Assay: C3H10T1/2 cells were expanded in T175 flasks; cells at the 13th passage were detached by trypsin/EDTA and diluted in the growth media. The resulting cell suspension was then plated into black clear bottom 384-well plates (Greiner) with 2500 cells/well in 100 μL growth media using a Multi-drop™ liquid delivery system (Titertek Instruments). After an overnight incubation, cells were attached to the bottom of the wells. A stock solution of Compound A in DMSO (500 nL) was delivered into corresponding well using a Mini Trak™ multiposition dispenser system (Packard BioScience) to make the final concentration of 5 μM of each compound. Cells were then incubated at 37° C. in 5% CO2. […] After 5 min, 10 μL of alkaline phosphatase substrate solution (1 mM in pH 10 buffer, 2′-[2′-benzothiazoyl]-6′-hydroxybenzothiazole phosphate (Promega) was added to each well. After a 15 minute incubation at room temperature, the plates were read on an Acquest high-throughput plate reader (Molecular Devices) using the manufacturer's protocol.
as §2

[8] = tested on: C3H10T1/2 cells; test: Alkaline phosphatase (ALP) enzymatic assay in C3H10T1/2 cells; format: cell-based, mouse
Method: Alkaline Phosphatase Assay: C3H10T1/2 cells were expanded in T175 flasks; cells at the 13th passage were detached by trypsin/EDTA and diluted in the growth media. The resulting cell suspension was then plated into black clear bottom 384-well plates (Greiner) with 2500 cells/well in 100 μL growth media using a Multi-dropTM liquid delivery system (Titertek Instruments). After an overnight incubation, cells were attached to the bottom of the wells. A stock solution of Compound A in DMSO (500 nL) was delivered into corresponding well using a Mini TrakTM multiposition dispenser system (Packard BioScience) to make the final concentration of 5 μM of each compound. Cells were then incubated at 37° C. in 5% CO2. After 4 days, the media was removed and 10 μL of Passive Lysis Buffer (Promega) was added into each well. After 5 min, 10 μL of alkaline phosphatase substrate solution (1 mM in pH 10 buffer, 2'-[2'-benzothiazoyl]-6'-hydroxybenzothiazole phosphate (Promega) was added to each well. After a 15 minute incubation at room temperature, the plates were read on an Acquest high-throughput plate reader (Molecular Devices) using the manufacturer's protocol. C3H10T1/2 cells were treated with DMSO (control), BMP-4(300 ng/mL), BMP-4 (100 ng/mL) and Compound A (1 μM), or 0.5 μ[…], or 10 μM Compound A. Alkaline phosphatase (ALP) activity was measured as described in Example 2 above, after two, four, and six days of treatment.

[9] = tested on: Cbfa1/Runx2 gene promoter; test: Cbfa1/Runx2 reporter gene assay, stably transfected MC3T3-E1 cells; format: cell-based, mouse
Description: as §1, with “For transient transfection assays, cells were seeded in a 6-well plate at a density of 30,000 cells/well in 2 mL of growth medium.” left out, “reader. Due to the low transfection efficiency of MC3T3-E1 cells, the Cbfa1/Runx2 reporter assay was carried out with stably transfected MC3T3-E1 cells.” for “reader.”

[10] = tested on: C3H10T1/2 cells; test: Histochemical staining for endogenous alkaline phosphatase expression in C3H10T1/2 cells; format: cell-based, mouse; details: 4 days; for cells stained positive for ALP: Compound A 2 μM, BMP-4 300 ng/mL
Method: Histochemical Staining for Endogenous Alkaline Phosphatase Expression: C3H10T1/2 cells were seeded in 96-well assay plates (Corning) at a density of 10,000 cells/well, and treated with 300 ng/mL of BMP-4, 1% DMSO, 2 μM of Compound A, or 100 ng/mL of BMP and 1 μM of Compound A for 4 days. The cells were then washed 3 times with 200 μL PBS and fixed by a 15 minute incubation in a 10% formalin solution (Sigma). The fixed cells were washed again with 3 times with 200 μL PBS and stained with the Alkaline Phosphatase Staining Kit 86R (Sigma Diagnostics) using the manufacturer's protocol. The images were taken on a Nikon Eclipse TE300 microscope, and ALP positive cells were counted manually from the images.
C3H10T1/2 cells were treated with DMSO (a), 300 ng/mL of BMP-4 (b), 2 μM of Compound A (c), and 100 ng/mL of BMP and 1 μM of Compound A (d) for 4 days and stained for ALP activity. ALP positive cells were stained red and the cell nuclei were stained blue.

Molecule: c1ccc2c(Oc3nc(Nc4ccc(N5CCOCC5)cc4)c4ncn(C5CCCCC5)c4n3)cccc2c1 [Compound A, 2-(1-Naphthoxy)-6-(4-morpholinoanilino)-9-cyclohexylpurine]
- Cbfa1/Runx2 gene expression [1]: can be induced by Compound A to express the Cbfa1/Runx2 gene
- Cbfa1 gene upregulation ([2]; C3H10T1/2 cells, FIG. 4B): induces Cbfa1 gene upregulation
- increase in Cbfa1/Runx2 reporter activity ([2]; treatment for 4 days, transient transfection): more than 6 fold
- Cbfa1/Runx2 expression [3]: induces Cbfa1/Runx2 expression
- morphology of the cells [4]: changed from fibroblast (long and spindle-shaped) to osteocyte (small and round)
- terminal differentiation of MC3T3-E1 cells [5]: promote the terminal differentiation
- expression of alkaline phosphatase, collagen type I and osteoponin ([6]; FIG. 5A): induces expression
- DNA microarray analysis ([6]; FIG. 5B): induces expression of a number of transcription factors and proteins
- increase in ALP level ([7]; optimal concentration of 5 μM): 9 fold
- effectiveness in inducing the expression of ALP compared with BMP-4 ([8]; C3H10T1/2 cells, FIG. 1): more effective than BMP-4
- EC50 ([8]; Mus musculus, C3H 10T1/2, ALP enzymatic assay, C3H10T1/2 cells): 1000 nM
- increase in ALP ([8]; after treatment for 4 days, compared with 1% DMSO treatment): > 50 fold
- change of Cbfa1/Runx2 reporter activity [9]: not dramatic
- cells stained positive for ALP [10]: more than 80%

B1: BMP-4: recombinant human bone morphogenetic protein 4 (BMP-4) (Sigma) (protein, UniProt P12644 293-408, looked up)
Bone morphogenetic protein 4: SPKHHSQRARKKNKNCRRHSLYVDFSDVGWNDWIVAPPGYQAFYCHGDCPFPLADHLNSTNHAIVQTLVNSVNSSIPKACCVPTELSAISMLYLDEYDKVVLKNYQEMVVEGCGCR
- terminal differentiation of MC3T3-E1 cells [5]: promote the terminal differentiation
- induction of ALP expression ([7]; BMP-4 alone): more than 40 fold
- cells stained positive for ALP [10]: 40%
- ALP expression level of induced cells compared to cells treated with Compound A ([10]; histochemical staining): higher expression level of ALP
